Like-named read-outs stand apart in the source and are kept apart here.
What was measured:
[1] = target: T1, human recombinant dopamine D4 receptor (Homo sapiens, UniProt P21917); conditions: saturating concentrations of dopamine; read-out: D4 efficacy IC50 ± SEM; cited from earlier work
T1 sequence (P21917 1-419): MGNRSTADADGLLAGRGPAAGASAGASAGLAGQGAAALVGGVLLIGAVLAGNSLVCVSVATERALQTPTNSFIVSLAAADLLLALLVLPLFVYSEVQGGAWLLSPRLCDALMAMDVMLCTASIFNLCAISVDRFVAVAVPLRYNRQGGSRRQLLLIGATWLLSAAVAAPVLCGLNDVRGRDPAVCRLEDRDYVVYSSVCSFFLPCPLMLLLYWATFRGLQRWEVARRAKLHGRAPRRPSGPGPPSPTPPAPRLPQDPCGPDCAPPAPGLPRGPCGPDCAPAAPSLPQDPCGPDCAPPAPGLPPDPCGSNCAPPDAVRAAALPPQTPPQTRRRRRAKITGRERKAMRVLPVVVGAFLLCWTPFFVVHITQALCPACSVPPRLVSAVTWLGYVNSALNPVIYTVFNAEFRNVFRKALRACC

[2] = human volunteers, cited from earlier work
[3] = target: human recombinant dopamine D2 receptor (Homo sapiens, UniProt P14416); conditions: saturating concentrations of dopamine; read-out: D2 efficacy IC50 ± SEM; cited from earlier work
Chain of human recombinant dopamine D2 receptor (P14416 whole entry): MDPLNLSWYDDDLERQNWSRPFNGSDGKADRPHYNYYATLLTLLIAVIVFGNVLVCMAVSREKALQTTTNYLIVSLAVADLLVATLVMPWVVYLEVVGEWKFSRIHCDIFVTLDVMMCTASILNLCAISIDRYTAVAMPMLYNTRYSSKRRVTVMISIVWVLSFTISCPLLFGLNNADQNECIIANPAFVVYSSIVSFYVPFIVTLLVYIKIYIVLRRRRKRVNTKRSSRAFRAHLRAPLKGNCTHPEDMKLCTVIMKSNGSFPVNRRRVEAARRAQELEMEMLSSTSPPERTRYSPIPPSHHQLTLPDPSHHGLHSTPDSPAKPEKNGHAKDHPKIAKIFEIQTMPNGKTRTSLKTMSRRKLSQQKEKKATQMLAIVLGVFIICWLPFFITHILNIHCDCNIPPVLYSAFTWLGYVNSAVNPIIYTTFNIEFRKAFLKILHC

[4] = target: human recombinant dopamine D3 receptor (Homo sapiens, UniProt P35462); conditions: saturating concentrations of dopamine; read-out: D3 efficacy IC50 ± SEM; cited from earlier work
Chain of human recombinant dopamine D3 receptor (P35462 whole entry): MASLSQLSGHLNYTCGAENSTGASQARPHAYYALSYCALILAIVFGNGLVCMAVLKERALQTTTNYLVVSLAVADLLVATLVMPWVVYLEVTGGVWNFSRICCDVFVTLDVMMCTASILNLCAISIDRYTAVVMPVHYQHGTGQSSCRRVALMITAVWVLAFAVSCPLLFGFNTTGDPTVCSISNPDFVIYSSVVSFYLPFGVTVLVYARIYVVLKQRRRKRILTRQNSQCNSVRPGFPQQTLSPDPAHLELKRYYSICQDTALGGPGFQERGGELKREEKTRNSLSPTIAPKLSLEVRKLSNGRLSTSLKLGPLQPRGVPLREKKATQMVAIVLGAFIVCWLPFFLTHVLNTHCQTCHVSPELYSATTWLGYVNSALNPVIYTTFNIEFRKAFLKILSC

PD model rats = experiment: Stepping test (adjusting steps) in PD model rats; type: in vivo, rat; conditions: 6-OH-Busp 3 mg/kg, sc added to L-DOPA 10 mg/kg
Protocol: The stepping test (Schallert et al., 1992) was performed as described by Kirik et al., 2001 with little modifications. Briefly, the rat was held by the experimenter fixing its hindlimbs with one hand and the forelimb not to be monitored with the other, while the unrestrained forepaw was touching the table. The number of adjusting steps was counted, while the rat was moved sideways along the table surface (90 cm in 5 s), in the forehand and backhand direction, for both forelimbs, and the average of the steps in the two directions is considered.
30 male PD model rats were used for adjusting steps test with the following groups: • 1. Vehicle 1+Vehicle 2 (n=7) • 2. Vehicle 1+L-DOPA (10 mg/kg, sc) (n=7) • 3. 6-OH-Busp (3 mg/kg, sc)+Vehicle 2 (n=8) • 4. 6-OH-Busp (3 mg/kg, sc)+L-DOPA (10 mg/kg, sc)
The PD rats were handled for 3 consecutive days. Vehicle 1 or 6-OH-Busp will s.c. dosed 61 min before adjusting steps test. Vehicle 2 or L-DOPA/Benserazide dosed 60 min before adjusting steps test. On testing day, the rats were held by both hind limbs and the untested forepaw. The test forepaw was placed on a flat surface and dragged in the forehand direction for 90 cm distance over 5 s. The number of adjusting steps was counted for both paws in the backhand and forehand directions of movement. […] Data were analyzed and graphed by Graph Pad Prism 6.

[5] = oral administration of buspirone, analyte = label (6-OH-Busp: total, both enantiomers)
[6] = oral administration of racemic 6-OH-Busp, exposure of 6-OH-Busp

For `O=C1CC2(CCCC2)C(O)C(=O)N1CCCCN1CCN(c2ncccn2)CC1` (racemic) [6-OH-Busp], the IC50 [1] is given as 0.85 ± 0.49 µM, the “half-life (T½)” value ([2]; after administration of either parent buspirone or 6-OH-Busp) is given as “longer than that of buspirone” and the AUC0-INF [2, 5] is given as 52.93 ngxh/ml. The Cmax [2, 5] was 0.00912 µg/mL, the AUC0-INF [2, 6] was 131.52 ngxh/ml and the Cmax [2, 6] was 0.02563 µg/mL. For the same compound, the IC50 [3] was 3.1 ± 1.8 µM, the IC50 [4] was 4.9 ± 2.8 µM and the “effect on adjusting steps of adding 6-OH-Busp to L-DOPA” value (PD model rats) was “no significant different effect”.

Source: US11478476B2 (CONTERA PHARMA APS, priority 2014, dated 2022)
